Here are results for 22 compounds from patent publication US7045532B2 (Millennium Pharmaceuticals, Inc., priority 1999, dated 2006).

For one experiment, the target named is T1, Carboxypeptidase A (Bos taurus, UniProt P00730).
T1 sequence (P00730 111-419): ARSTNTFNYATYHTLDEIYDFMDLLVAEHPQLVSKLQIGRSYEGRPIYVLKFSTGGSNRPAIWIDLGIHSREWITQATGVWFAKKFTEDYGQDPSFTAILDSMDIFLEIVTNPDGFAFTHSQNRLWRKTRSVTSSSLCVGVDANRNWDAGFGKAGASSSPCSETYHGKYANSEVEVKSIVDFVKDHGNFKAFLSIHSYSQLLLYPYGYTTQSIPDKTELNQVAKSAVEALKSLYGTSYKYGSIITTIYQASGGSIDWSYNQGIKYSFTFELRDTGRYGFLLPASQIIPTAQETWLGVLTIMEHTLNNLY
In words: Carboxypeptidase A activity assay. The experiment is classed as biochemical. Conditions: Ki class; compounds tested in 5% DMSO, 12 concentrations. As to the method:
Carboxypeptidase A activity was measured using a literature assay (Holmquist and Riordan, “Carboxypeptidase A,” Methods of Enzymatic Analysis (1984) p. 44–60). The assay was adapted to a 96 well format by adjusting to a 300 μL assay volume and using ultra-thin bottom plates (Costar/Corning) read at 328 nm. The assay was stopped using EDTA.
The activity of the test compounds was investigated using the procedure outlined above. The compounds were tested in 5% DMSO. Enzyme activity was measured at 12 compound concentrations. The Ki was calculated by using Ki=Kiapp/(1+[S]/Km).
To determine whether a test compound is capable of modulating carboxypeptidase A's ability to cleave a substrate the method described in Holmquist and Riordan, Carboxypeptidase A, p44–60, Peptidase and Their Inhibitors in Method of Enzymatic Analysis (1984), may be used.
The assay may be adapted to a 96 well format by adjusting to a 300 μl assay volume and using ultrathin bottom plates (Costar/Coming) read at 328 nm with a final assay volume of 300 μl. The assay may be stopped using EDTA.

Another experiment concerns the target T2, ACE (Sigma, A2580) (Sus scrofa, UniProt F1RRW5).
T2 construct: ACE from porcine kidney; purchased Sigma A2580; host or cells: porcine kidney
T2 sequence (F1RRW5 34-1309): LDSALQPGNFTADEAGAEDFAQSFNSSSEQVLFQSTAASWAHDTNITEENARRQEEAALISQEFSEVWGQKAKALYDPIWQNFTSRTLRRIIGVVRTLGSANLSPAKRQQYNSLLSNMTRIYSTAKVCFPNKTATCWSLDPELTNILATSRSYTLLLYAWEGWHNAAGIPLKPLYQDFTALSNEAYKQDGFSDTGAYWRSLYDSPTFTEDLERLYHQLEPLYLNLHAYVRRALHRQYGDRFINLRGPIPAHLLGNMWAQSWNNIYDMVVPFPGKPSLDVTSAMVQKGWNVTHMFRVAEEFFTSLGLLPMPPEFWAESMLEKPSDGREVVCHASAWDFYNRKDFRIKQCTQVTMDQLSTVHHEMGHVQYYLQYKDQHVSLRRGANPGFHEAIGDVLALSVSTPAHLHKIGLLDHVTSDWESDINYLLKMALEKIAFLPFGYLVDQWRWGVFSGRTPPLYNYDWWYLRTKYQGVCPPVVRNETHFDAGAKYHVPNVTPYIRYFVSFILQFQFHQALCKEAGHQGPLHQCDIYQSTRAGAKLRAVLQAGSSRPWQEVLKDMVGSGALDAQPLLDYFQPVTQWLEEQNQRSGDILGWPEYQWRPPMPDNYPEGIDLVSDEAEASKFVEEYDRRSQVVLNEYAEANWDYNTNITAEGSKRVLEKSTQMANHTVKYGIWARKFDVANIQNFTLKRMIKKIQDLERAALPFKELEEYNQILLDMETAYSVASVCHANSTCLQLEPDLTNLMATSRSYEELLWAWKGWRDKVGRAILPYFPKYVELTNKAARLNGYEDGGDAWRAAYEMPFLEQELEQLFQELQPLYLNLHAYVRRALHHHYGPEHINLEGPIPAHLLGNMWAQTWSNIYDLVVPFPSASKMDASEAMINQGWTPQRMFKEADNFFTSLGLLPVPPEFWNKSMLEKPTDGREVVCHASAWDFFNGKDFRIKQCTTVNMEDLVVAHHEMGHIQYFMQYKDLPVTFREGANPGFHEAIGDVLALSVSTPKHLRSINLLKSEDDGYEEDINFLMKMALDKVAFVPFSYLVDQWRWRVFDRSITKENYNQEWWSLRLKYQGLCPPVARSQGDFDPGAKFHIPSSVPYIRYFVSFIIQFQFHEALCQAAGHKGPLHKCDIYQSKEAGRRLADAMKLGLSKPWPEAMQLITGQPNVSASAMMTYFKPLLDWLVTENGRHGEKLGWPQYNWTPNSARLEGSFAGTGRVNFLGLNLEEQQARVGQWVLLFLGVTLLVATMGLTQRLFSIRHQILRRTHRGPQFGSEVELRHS
In words: ACE enzymatic activity assay. The experiment is classed as biochemical, porcine. As to conditions: Ki class; compounds tested in 5% DMSO, 12 concentrations. As to the method: ACE (Sigma, A2580) enzymatic activity was assayed in microtiter plates using the following protocol. ACE assay buffer was made from 50 mM HEPES (Sigma), 300 mM sodium chloride (Sigma), and 0.01% Brij-35 (Pierce Chemical Co) at pH 7.5.
Reactions were mixed and incubated at 25° C. Enzymatic cleavage of the substrate is marked by a fluorescence change (excitation 330 nm, emission 415 nm).
The activity of the test compounds was investigated using the procedure outlined above. The compounds were tested in 5% DMSO. Enzyme activity was measured at 12 compound concentrations. […]. […]

Another experiment deals with T3, ACE-2 (Homo sapiens, UniProt Q9BYF1).
T3 construct: a stop codon inserted after the serine immediately preceding the transmembrane domain; made in house; host or cells: CHO K1 cells (transient transfection, purified from conditioned medium)
T3 sequence (Q9BYF1 18-740 limits assumed): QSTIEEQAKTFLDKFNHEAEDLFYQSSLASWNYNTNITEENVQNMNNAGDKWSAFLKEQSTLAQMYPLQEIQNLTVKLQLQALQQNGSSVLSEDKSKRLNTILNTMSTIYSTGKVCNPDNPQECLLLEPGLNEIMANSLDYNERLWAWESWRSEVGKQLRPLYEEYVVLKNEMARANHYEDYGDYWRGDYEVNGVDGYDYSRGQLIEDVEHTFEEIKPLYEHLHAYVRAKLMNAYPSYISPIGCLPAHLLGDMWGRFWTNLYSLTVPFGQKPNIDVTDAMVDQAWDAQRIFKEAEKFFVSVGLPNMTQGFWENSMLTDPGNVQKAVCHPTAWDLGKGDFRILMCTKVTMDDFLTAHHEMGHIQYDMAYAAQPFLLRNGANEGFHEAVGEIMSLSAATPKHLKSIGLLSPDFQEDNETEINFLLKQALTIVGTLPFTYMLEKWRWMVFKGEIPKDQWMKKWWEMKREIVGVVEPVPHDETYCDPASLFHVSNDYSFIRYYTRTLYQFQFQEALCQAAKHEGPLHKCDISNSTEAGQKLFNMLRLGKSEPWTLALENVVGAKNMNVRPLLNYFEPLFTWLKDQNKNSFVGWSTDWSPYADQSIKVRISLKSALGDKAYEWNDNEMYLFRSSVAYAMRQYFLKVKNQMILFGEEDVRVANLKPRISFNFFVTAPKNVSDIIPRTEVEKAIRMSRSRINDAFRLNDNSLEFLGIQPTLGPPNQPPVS
In words: ACE-2 Competitive Substrate Assay (ACS Assay). It counts as biochemical.

[1] abbreviates: Ki class, compounds tested in 5% DMSO, 12 concentrations, read-out: Human ACE-2 Activity.
Where [2] appears, read: Ki class per key, compounds tested in 5% DMSO, 12 compound concentrations, 25° C., Ki=Kiapp/(1+[S]/Km), read-out: Human ACE-2 Activity.
Setting [3] is: Table 3, very good ACE-2 inhibiting compounds, species not given, read-out: ACE-2 Activity, Ki.

Like-named read-outs stand apart in the source and are kept apart here.

Take “2-[2-(3-Benzyl-3H-imidazol-4-yl)-1-carboxy-ethylamino]-butync acid [GG]”: the Ki at Carboxypeptidase A was more than 50 µM; on ACE (Sigma, A2580) it was more than 50 µM.
For “2-[2-(3-Benzyl-3H-imidazol-4-yl)-1-carboxy-ethylamino]-butync acid [GH]”, the Ki on Carboxypeptidase A was more than 50 µM; at ACE (Sigma, A2580), more than 50 µM.
For “4-Methyl-2-(3-phenethyl-ureido)-pentanoic acidmethyl ester [DG]”, the Ki on Carboxypeptidase A is more than 50 µM; on ACE (Sigma, A2580), more than 50 µM.
In the case of `CC(=O)N(C(CCc1ccccc1)C(=O)O)[C@@H](CC(C)C)C(=O)O` (single isomer, unassigned) [AU, 2-[Acetyl-(1-carboxy-3-phenyl-propyl)-amino]-4-methyl-pentanoic acid], the Ki on Carboxypeptidase A is more than 50 µM; on ACE (Sigma, A2580), more than 50 µM.
With `CC(C)CC(N[C@H](Cc1c[nH]cn1)C(=O)O)C(=O)O` (single isomer, unassigned) [BJ, 2-[1-Carboxy-2-(1H-imidazol-4-yl)-ethylamino]4-methyl-pentanoic acid], the Ki is more than 50 µM on Carboxypeptidase A and 10 to 50 µM on ACE (Sigma, A2580).
With `CC(C)CC(N[C@@H](Cc1cn(Cc2ccccc2)cn1)C(=O)O)C(=O)O` (single isomer, unassigned) [DM, 2-[2-(1-Benzyl-1H-imidazol-4-yl)-1-carboxy-ethylamino]-4-methyl-pentanoic acid], the Ki on Carboxypeptidase A was more than 50 µM; at ACE (Sigma, A2580), more than 50 µM.
Consider `CCCCC(CC(=O)O)N[C@@H](Cc1c[nH]cn1)C(=O)O` (single isomer, unassigned) [ET, 3-[1-Carboxy-2-(1H-imidazol-4-yl)-ethylamino]heptanoic acid], for which the Ki at Carboxypeptidase A is more than 50 µM; on ACE (Sigma, A2580) it was more than 50 µM.
As to `CC(C)CC(N[C@@H](Cc1c[nH]cn1)C(N)=O)C(=O)O` (single isomer, unassigned) [EW, 2-[1-Carbamoyl-2-(1H-imidazol-4-yl)-ethylamino]4-methyl-pentanoic acid], the Ki on Carboxypeptidase A is more than 50 µM; on ACE (Sigma, A2580), more than 50 µM.
For `CC(C)CC(N[C@@H](Cc1c[nH]cn1)C(=O)Nc1ccc([N+](=O)[O-])cc1)C(=O)O` (single isomer, unassigned) [EY, 2-[2-(1H-Imidazol-4-yl)-1-(4-nitro-phenylcarbamoyl)ethylamino]-4-methyl-pentanoic acid], the Ki on Carboxypeptidase A is more than 50 µM; on ACE (Sigma, A2580), more than 50 µM.
Turning to `CC(C)CC(N[C@@H](Cc1cncn1Cc1ccccc1)C(=O)O)C(=O)O` (single isomer, unassigned) [FA, 2-[2-(3-Benzyl-3H-imidazol-4-yl)-1-carboxy-ethylamino]-4-methyl-pentanoic acid], the Ki on Carboxypeptidase A is more than 50 µM; at ACE (Sigma, A2580), more than 50 µM.
Take `CC(C)CC(N[C@@H](CNc1ccccc1)C(=O)O)C(=O)O` (single isomer, unassigned) [FJ, 2-(1-Carboxy-2-phenylamino-ethylamino)-4-methyl-pentanoic acid]: the Ki was more than 50 µM on Carboxypeptidase A and more than 50 µM on ACE (Sigma, A2580).
As for `COc1ccc(CCNC(=O)[C@H](Cc2cnc[nH]2)NC(CC(C)C)C(=O)O)cc1` (single isomer, unassigned) [FL, 2-{2-(3H-Imidazol-4-yl)-1-[2-(4-methoxy-phenyl)-ethylcarbamoyl]-ethylamino}4-methyl-pentanoic acid], the Ki at Carboxypeptidase A was more than 50 µM; at ACE (Sigma, A2580), more than 50 µM.
`CC(C)CC(N[C@@H](Cc1cncn1COCc1ccccc1)C(=O)NCCc1ccccc1)C(=O)O` (single isomer, unassigned) [FN, 2-[2-(3-Benzyloxymethyl-3H-imidazol-4-yl)-1-phenethylcarbamoyl-ethylamino]-4-methyl-pentanoic acid]: the Ki on Carboxypeptidase A was more than 50 µM; at ACE (Sigma, A2580), more than 50 µM.
Regarding `CC(C)CC(N[C@H](CO)Cc1c[nH]cn1)C(=O)O` (single isomer, unassigned) [FP, 2-[1-Hydroxymethyl-2-(1H-imidazol-4-yl)-ethylamino)4-methyl-pentanoic acid], the Ki at Carboxypeptidase A was more than 50 µM; at ACE (Sigma, A2580), more than 50 µM.
With `CC(C)CC(N[C@@H](Cc1cnc[nH]1)C(=O)NCCc1ccccc1)C(=O)O` (single isomer, unassigned) [FX, 2-[2-(3H-Imidazol-4-yl)-1-phenethylcarbamoyl-ethylamino]-4-methyl-pentanoic acid], the Ki was more than 50 µM at Carboxypeptidase A and more than 50 µM on ACE (Sigma, A2580).
As to `CC(C)C[C@H](NC(CCc1ccccc1)C(=O)O)C(=O)O` (stereo partly drawn) [C, 2-(1-Carboxy-3-phenyl-propylamino)-4-methyl-pentanoic acid], the Ki was more than 0.5 µM on ACE-2 (setting [1]) and more than 50 µM on ACE (Sigma, A2580).
With `CC(C)C[C@H](N[C@@H](CCc1ccccc1)C(=O)O)C(=O)O` [D, 2-(1-Carboxy-3-phenyl-propylamino)-4-methyl-pentanoic acid], the Ki is more than 0.5 µM at ACE-2 (setting [1]) and more than 50 µM on ACE (Sigma, A2580).
For `CC(CS)C(=O)O` (stereo not drawn) [G, 3-Mercapto-2-methyl-propionic acid] the same measures were more than 0.5 µM and more than 50 µM.
In the case of `CC(C)C[C@H](N[C@@H](Cc1ccc(C(=O)C(F)(F)F)n1CCC1CCCCC1)C(=O)O)C(=O)O` [QZ, 2-[1-Carboxy-2-[1-(2-cyclohexyl-ethyl)-5-(2,2,2-trifluoro-acetyl)-1H-pyrrol-2-yl]-ethylamino]-4-methylpentanoic acid], the figures for the Ki at ACE-2 (setting [2]) and on ACE-2 (setting [3]) were less than 0.1 µM and less than 0.05 µM, respectively.
On to `CC(C)C[C@H](N[C@@H](Cc1ccc([N+](=O)O)cc1)C(=O)O)C(=O)O` [RA, 2-[1-Carboxy-2-(4-nitro-phenyl)-ethylamino]-4-methyl-pentanoic acid], for which the Ki on ACE-2 (setting [2]) fell in the range of 0.1 to 0.5 µM.
With `COc1ccccc1C(=O)Nc1ccc(C[C@H](N[C@@H](CC(C)C)C(=O)O)C(=O)O)cc1` [RB, 2-[1-Carboxy-2-[4-(2-methoxy-benzoylamino)-phenyl]-ethylamino]-4-methyl-pentanoic acid], the figures for the Ki on ACE-2 (setting [2]) and on ACE-2 (setting [3]) were less than 0.1 µM and less than 0.05 µM, respectively.
`CC(C)C[C@H](N[C@@H](Cc1ccc(N(Cc2cc(F)cc(F)c2)Cc2cc(F)cc(F)c2)cc1)C(=O)O)C(=O)O` [RD, 2-(2-(4-[Bis-(3,5-difluoro-benzyl)-amino]-phenyl)-1-carboxy-ethylamino)-4-methyl-pentanoic acid]: the Ki on ACE-2 (setting [2]) was 0.1 to 0.5 µM.
